Like-named read-outs stand apart in the source and are kept apart here.

This is an account of results in patent publication US11702404B2, “GLP-1R modulating compounds” (priority 2019, dated 2023).

Data set [1] can be described thus: Microsomal stability, human liver microsomes (predicted hepatic clearance). Conditions: predicted from in vitro microsomal stability data.
For the next data set, the target named is GLP-1R (Homo sapiens, UniProt P43220). In words: GLP-1R activation: cAMP increase in CHO cells stably expressing GLP-1R. The data set is classed as cell-based.
Sequence of GLP-1R (P43220 24-463): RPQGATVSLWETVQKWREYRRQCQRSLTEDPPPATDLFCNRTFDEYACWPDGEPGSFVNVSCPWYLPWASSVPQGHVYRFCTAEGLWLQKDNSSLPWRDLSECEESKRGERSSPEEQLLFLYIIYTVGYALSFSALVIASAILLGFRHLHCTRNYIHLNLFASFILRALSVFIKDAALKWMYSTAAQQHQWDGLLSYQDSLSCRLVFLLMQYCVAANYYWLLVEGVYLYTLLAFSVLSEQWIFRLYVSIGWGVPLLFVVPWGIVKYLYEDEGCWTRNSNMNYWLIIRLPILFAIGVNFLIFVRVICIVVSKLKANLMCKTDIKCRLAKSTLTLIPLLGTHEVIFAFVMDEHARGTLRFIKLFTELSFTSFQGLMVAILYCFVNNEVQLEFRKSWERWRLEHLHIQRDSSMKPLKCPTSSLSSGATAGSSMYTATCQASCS
Where [2] appears, read: cAMP increase, CHO cells stably expressing GLP-1R, 10 point dose response, 30 minutes incubation, read-out: EC50.

Broadly, the EC50 is the concentration that produces a half-maximal response. For `N#Cc1ccc(COc2ncc(F)c(-c3cc(F)c(Cc4nc5ccc(C(=O)O)cc5n4C[C@@H]4CCO4)cc3F)n2)c(F)c1` [Example 879, 2-[[4-[2-[(4-cyano-2-fluoro-phenyl)methoxy]-5-fluoro-pyrimidin-4-yl]-2,5-difluoro-phenyl]methyl]-3-[[(2S)-oxetan-2-yl]methyl]benzimidazole-5-carboxylic acid], the “Predicted Hepatic Clearance (Pred. Cl.)” value in data set [1] was 6 mL/min/kg. Also, the EC50 on GLP-1R (setting [2]) worked out at 0.51 nM.
Turning to `N#Cc1ccc(COc2ncc(F)c(-c3ccc(Cc4nc5c(F)cc(C(=O)O)cc5n4C[C@@H]4CCO4)c(F)c3)n2)c(F)c1` [Example 880], the “Predicted Hepatic Clearance (Pred. Cl.)” value in data set [1] is 7.5 mL/min/kg. In addition, the EC50 at GLP-1R (setting [2]) was determined as 0.26 nM.
With `N#Cc1ccc(COc2ncc(F)c(-c3ccc(Cc4nc5c(F)cc(C(=O)O)cc5n4C[C@@H]4CCO4)cc3F)n2)c(F)c1` [Example 881], the “Predicted Hepatic Clearance (Pred. Cl.)” value in data set [1] was 8.83 mL/min/kg. Moreover, the EC50 on GLP-1R (setting [2]) was 0.29 nM.
Taken in the same sequence, the figures for `N#Cc1ccc(COc2ncc(F)c(-c3ccc(Cc4nc5c(F)cc(C(=O)O)cc5n4C[C@@H]4CCO4)cc3)n2)c(F)c1` [Example 882] were 6.17 mL/min/kg and 0.18 nM.
On to `N#Cc1ccc(COc2ncc(F)c(-c3cc(F)c(Cc4nc5c(F)cc(C(=O)O)cc5n4CC4(CF)CC4)cc3F)n2)c(F)c1` [Example 883], for which the “Predicted Hepatic Clearance (Pred. Cl.)” value in data set [1] is 7.5 mL/min/kg. The EC50 at GLP-1R (setting [2]) is 0.3 nM.
For `O=C(O)c1cc(F)c2nc(Cc3cc(F)c(-c4nc(OCc5ccc(C(F)(F)F)cc5F)ncc4F)cc3F)n(C[C@@H]3CCO3)c2c1` [Example 884] the same measures were 3.17 mL/min/kg and 0.19 nM.
Turning to `N#Cc1cc(F)c(COc2ncc(F)c(-c3cc(F)c(Cc4nc5c(F)cc(C(=O)O)cc5n4C[C@@H]4CCO4)cc3F)n2)cc1F` [Example 885], the “Predicted Hepatic Clearance (Pred. Cl.)” value in data set [1] was 9.17 mL/min/kg. For the same compound, the EC50 on GLP-1R (setting [2]) came out at 0.22 nM.
Take `N#Cc1ccc(COc2ncc(F)c(-c3cc(F)c(Cc4nc5c(F)cc(C(=O)O)cc5n4C[C@@H]4CCO4)cc3F)n2)c(F)c1` [Example 886]: the “Predicted Hepatic Clearance (Pred. Cl.)” value in data set [1] was 5.83 mL/min/kg. Further, the EC50 at GLP-1R (setting [2]) is 0.18 nM.
With `CC(C)(C)C(=O)N1CC[C@@H]1Cn1c(Cc2ccc(-c3cccc(OCc4ccc(C#N)cc4F)n3)cc2F)nc2ccc(C(=O)O)cc21` [Example 887, 2-[[4-[6-[(4-cyano-2-fluoro-phenyl)methoxy]-2-pyridyl]-2-fluoro-phenyl]methyl]-3-[[(2R)-1-(2,2-dimethylpropanoyl)azetidin-2-yl]methyl]benzimidazole-5-carboxylic acid], the “Predicted Hepatic Clearance (Pred. Cl.)” value in data set [1] is 8.83 mL/min/kg. Besides, the EC50 at GLP-1R (read-out: EC50) is 8310 nM.
Taken in the same sequence, the figures for `CS(=O)(=O)N1CC[C@@H]1Cn1c(Cc2ccc(-c3cccc(OCc4ccc(C#N)cc4F)n3)cc2F)nc2ccc(C(=O)O)cc21` [Example 888, 2-[[4-[6-[(4-cyano-2-fluoro-phenyl)methoxy]-2-pyridyl]-2-fluoro-phenyl]methyl]-3-[[(2R)-1-methylsulfonylazetidin-2-yl]methyl]benzimidazole-5-carboxylic acid] were 5.83 mL/min/kg and 6.01 nM.
With `N#Cc1ccc(COc2cccc(-c3cc(F)c(Cc4nc5c(F)cc(C(=O)O)cc5n4CCOC(F)F)cc3F)n2)c(F)c1` [Example 892], in data set [1], the “Predicted Hepatic Clearance (Pred. Cl.)” value was 5.5 mL/min/kg. Further, at GLP-1R (setting [2]), the EC50 is 0.78 nM.
In the case of `CC(C)(C)OCCn1c(Cc2cc(F)c(-c3cccc(OCc4ccc(C#N)cc4F)n3)cc2F)nc2ccc(C(=O)O)cc21` [Example 893, 1-(2-(tert-butoxy)ethyl)-2-(4-(6-((4-cyano-2-fluorobenzyl)oxy)pyridin-2-yl)-2,5-difluorobenzyl)-1H-benzo[d]imidazole-6-carboxylic acid], the “Predicted Hepatic Clearance (Pred. Cl.)” value in data set [1] is 1.83 mL/min/kg. This compound also had a concentration for a half-maximal effect (EC50) at GLP-1R (EC50 (nM)) of 35.3 nM.
On to `N#Cc1ccc(COc2cccc(-c3cc(F)c(Cc4nc5c(F)cc(C(=O)O)cc5n4CCOC4CC4)cc3F)n2)c(F)c1` [Example 894], for which, in data set [1], the “Predicted Hepatic Clearance (Pred. Cl.)” value is 4.17 mL/min/kg. The EC50 on GLP-1R (setting [2]) worked out at 2.68 nM.
On to `N#Cc1ccc(COc2cccc(-c3cc(F)c(Cc4nc5ccc(C(=O)O)cc5n4CCNc4ccccc4)cc3F)n2)c(F)c1` [Example 895], for which the “Predicted Hepatic Clearance (Pred. Cl.)” value in data set [1] was 8 mL/min/kg. Further, the EC50 at GLP-1R (read-out: EC50) is 79.9 nM.
As for `N#Cc1ccc(COc2cccc(-c3cc(F)c(Cc4nc5c(F)cc(C(=O)O)cc5n4C[C@@H]4CCO4)cc3F)n2)c(F)c1` [Example 896], the “Predicted Hepatic Clearance (Pred. Cl.)” value in data set [1] was 4.5 mL/min/kg. Further, the 50% effective concentration (EC50) on GLP-1R (setting [2]) came out at 0.03 nM.
On to `N#Cc1ccc(COc2nccc(-c3cc(F)c(Cc4nc5ccc(C(=O)O)cc5n4CCOC4CC4)cc3F)n2)c(F)c1` [Example 897], for which the “Predicted Hepatic Clearance (Pred. Cl.)” value in data set [1] was 2.17 mL/min/kg. Besides, the EC50 on GLP-1R (setting [2]) amounted to 4.1 nM.
For the compound `N#Cc1ccc(COc2cccc(-c3cc(F)c(Cc4nc5ccc(C(=O)O)cc5n4CC45CC(CO4)C5)cc3F)n2)c(F)c1` [Example 898, 1-((2-oxabicyclo[2.1.1]hexan-1-yl)methyl)-2-(4-(6-((4-cyano-2-fluorobenzyl)oxy)pyridin-2-yl)-2,5-difluorobenzyl)-1H-benzo[d]imidazole-6-carboxylic acid], the “Predicted Hepatic Clearance (Pred. Cl.)” value in data set [1] was 9.67 mL/min/kg. At GLP-1R (setting [2]), the EC50 is 1.5 nM.
With `N#Cc1ccc(COc2ccc(F)c(-c3cc(F)c(Cc4nc5ccc(C(=O)O)cc5n4CCOC4CC4)cc3F)n2)c(F)c1` [Example 899], in data set [1], the “Predicted Hepatic Clearance (Pred. Cl.)” value is 4 mL/min/kg. In addition, the concentration for a half-maximal effect (EC50) at GLP-1R (setting [2]) turned out to be 2.26 nM.
With `N#Cc1ccc(COc2nc(-c3cc(F)c(Cc4nc5ccc(C(=O)O)cc5n4CCOC4CC4)cc3F)ccc2F)c(F)c1` [Example 900], the “Predicted Hepatic Clearance (Pred. Cl.)” value in data set [1] is 1.83 mL/min/kg. In addition, at GLP-1R (setting [2]), the EC50 amounted to 1.26 nM.
On to `COCCn1c(Cc2cc(F)c(-c3cccc(OCc4ccc(C5=CCNCC5)cc4F)n3)cc2F)nc2ccc(C(=O)O)cc21` [Example 901, 2-(2,5-difluoro-4-(6-((2-fluoro-4-(1,2,3,6-tetrahydropyridin-4-yl)benzyl)oxy)pyridin-2-yl)benzyl)-1-(2-methoxyethyl)-1H-benzo[d]imidazole-6-carboxylic acid], for which the “Predicted Hepatic Clearance (Pred. Cl.)” value in data set [1] is 4.5 mL/min/kg. The EC50 at GLP-1R (setting [2]) was 160 nM.
For `COCCn1c(Cc2cc(F)c(-c3cccc(OCc4ccc(C5=CCN(C(C)=O)CC5)cc4F)n3)cc2F)nc2ccc(C(=O)O)cc21` [Example 902, 2-(4-(6-((4-(1-acetyl-1,2,3,6-tetrahydropyridin-4-yl)-2-fluorobenzyl)oxy)pyridin-2-yl)-2,5-difluorobenzyl)-1-(2-methoxyethyl)-1H-benzo[d]imidazole-6-carboxylic acid] the same measures were 8.67 mL/min/kg and 6.19 nM.
With `COCCn1c(Cc2ccc(-c3cccc(OCc4ccc(C#N)cc4F)n3)c3c2COC3)nc2ccc(C(=O)O)cc21` [Example 903, 2-((7-(6-((4-cyano-2-fluorobenzyl)oxy)pyridin-2-yl)-1,3-dihydroisobenzofuran-4-yl)methyl)-1-(2-methoxyethyl)-1H-benzo[d]imidazole-6-carboxylic acid], in data set [1], the “Predicted Hepatic Clearance (Pred. Cl.)” value was 1.83 mL/min/kg. Moreover, the EC50 on GLP-1R (setting [2]) worked out at 107 nM.
Turning to `CC(C)(C)OC(=O)N(CCn1c(Cc2cc(F)c(-c3cccc(OCc4ccc(C#N)cc4F)n3)cc2F)nc2ccc(C(=O)O)cc21)C1CC1` [Example 907, 1-(2-((tert-butoxycarbonyl)(cyclopropyl)amino)ethyl)-2-(4-(6-((4-cyano-2-fluorobenzyl)oxy)pyridin-2-yl)-2,5-difluorobenzyl)-1H-benzo[d]imidazole-6-carboxylic acid], the “Predicted Hepatic Clearance (Pred. Cl.)” value in data set [1] is 8.5 mL/min/kg. Further, the concentration giving a half-maximal response (EC50) on GLP-1R (read-out: EC50) came to 9960 nM.
In the case of `COCCn1c(Cc2cc(F)c(-c3cccc(OCc4cccc(-c5ccccn5)c4)n3)cc2F)nc2ccc(C(=O)O)cc21` [Example 908], the “Predicted Hepatic Clearance (Pred. Cl.)” value in data set [1] was 5.17 mL/min/kg. The EC50 on GLP-1R (setting [2]) stood at 6.68 nM.
For `COCCn1c(Cc2cc(F)c(-c3cccc(OCc4cccc(-c5ncccn5)c4)n3)cc2F)nc2ccc(C(=O)O)cc21` [Example 909] the same measures were 3.67 mL/min/kg and 2.25 nM.
For `COCCn1c(Cc2cc(F)c(-c3cccc(OCc4ccc(-c5ccccn5)cc4F)n3)cc2F)nc2ccc(C(=O)O)cc21` [Example 910] the same measures were 2.83 mL/min/kg and 33.4 nM.
On to `COCCn1c(Cc2cc(F)c(-c3cccc(OCc4ccc(-c5ncccn5)cc4F)n3)cc2F)nc2ccc(C(=O)O)cc21` [Example 911, 2-[[2,5-difluoro-4-[6-[(2-fluoro-4-pyrimidin-2-yl-phenyl)methoxy]-2-pyridyl]phenyl]methyl]-3-(2-methoxyethyl)benzimidazole-5-carboxylic acid], for which the “Predicted Hepatic Clearance (Pred. Cl.)” value in data set [1] is 1.83 mL/min/kg. The EC50 at GLP-1R (setting [2]) stood at 55.6 nM.
On to `COCCn1c(Cc2cc(F)c(-c3cccc(OCc4ccc(-c5cc[nH]c(=O)c5)cc4F)n3)cc2F)nc2ccc(C(=O)O)cc21` [Example 912], for which, in data set [1], the “Predicted Hepatic Clearance (Pred. Cl.)” value is 1.83 mL/min/kg. In addition, the EC50 on GLP-1R (setting [2]) was 15.3 nM.
As to `COCCn1c(Cc2cc(F)c(-c3cccc(OCc4cccc(-c5cnn(C)c5)c4)n3)cc2F)nc2ccc(C(=O)O)cc21` [Example 913], the “Predicted Hepatic Clearance (Pred. Cl.)” value in data set [1] is 3.83 mL/min/kg. The EC50 at GLP-1R (setting [2]) was 112 nM.
With `COCCn1c(Cc2cc(F)c(-c3cccc(OCc4cccc(-c5ccn(C)n5)c4)n3)cc2F)nc2ccc(C(=O)O)cc21` [Example 914], the “Predicted Hepatic Clearance (Pred. Cl.)” value in data set [1] was 6 mL/min/kg. Moreover, the EC50 on GLP-1R (setting [2]) was 51.5 nM.
Turning to `COCCn1c(Cc2cc(F)c(-c3cccc(OCc4ccc(-c5cnn(C)c5)cc4F)n3)cc2F)nc2ccc(C(=O)O)cc21` [Example 915, 2-[[2,5-difluoro-4-[6-[[2-fluoro-4-(1-methylpyrazol-4-yl)phenyl]methoxy]-2-pyridyl]phenyl]methyl]-3-(2-methoxyethyl)benzimidazole-5-carboxylic acid], in data set [1], the “Predicted Hepatic Clearance (Pred. Cl.)” value was 4 mL/min/kg. Also, the EC50 at GLP-1R (setting [2]) was found to be 2.26 nM.
